Entries after “also recorded” stand apart in the source; their conditions may differ.
What was measured:
[1] = test system: 1 kb Plus DNA Latter in agarose gel; experiment: Post-DNA gel staining
Method: Serial two-fold dilutions of 1 kb Plus DNA Latter from Invitrogen Co. (Carlsbad, Calif.) were made and the resulting DNA samples were loaded onto an agarose gel in four lanes from left to right with a loading of 200 ng, 100 ng, 50 ng, and 25 ng per lane, respectively. The DNA samples were electrophoretically separated in 1×TBE buffer using a standard protocol. The nucleic acid sample was loaded onto the gel from in four columns from left to right with a loading of 200 ng, 100 ng, 50 ng, and 25 ng per lane, respectively, and electrophoretically separated in 1×TBE buffer using a standard protocol. A stock solution of a Dye No. 20 of Table 1 in DMF at about 12 mM concentration was prepared. […] The agarose gel was submerged in the staining solution for approximately 30 minutes to stain the gel. The resulting gel was then viewed using a UV transilluminator with 254 nm excitation.
A similar procedure was followed to prepare post gel staining solutions of Dye No. 29 of Table 1, except that Dye No. 29 was used in place of Dye No. 20 and at various conditions, as now described. […] Identical DNA samples were prepared, loaded onto three separate agarose gels, and separated via standard gel electrophoreses, in the manner described above. Each of the three separate gels was then stained by immersion in a different one of the resulting gels for about 30 minutes. […]

[2] = test system: Salmonella typhimurium bacteria, strain TA98; conditions: cited from earlier work
[3] = test system: Salmonella typhimurium bacteria, strain TA98; experiment: Mutagenicity assay, Muta-ChromoPlate test kit (based on the Ames Test, bacterial reverse mutation); conditions: for Mutagenicity relative to the negative control: in the absence of S9 extract; for Positive wells: with S9 extract (rat liver); for Positive wells / Positive wells, Exp 1 / Positive wells, Exp 2: positive wells out of 36, TA98; for Positive wells, Exp 1 / Positive wells, Exp 2: without S9 extract
Text: The test kit is based on the Ames Test, a bacterial reverse mutation test. The test employs a mutant strain, or several strains, of Salmonella typhimurium bacteria, carrying mutation(s) in the operon coding for histidine biosynthesis. When the bacteria are exposed to mutagenic agents under certain conditions, reverse mutation from amino acid (histidine) auxotrophy to prototrophy occurs. […] S9 extract is a rat liver extract that comprises various metabolic enzymes. The tests associated with the presence of S9 extract were undertaken to give information on the potential genotoxicity of the metabolized dyes. […] Each single test was carried out using 36 wells and the number of positive wells out of each 36 wells was taken as an indicator of the relative mutagenicity levels of the dye under the test conditions. As a negative control, bacteria were also incubated in the absence of a dye.
Mutagenicity assays were carried out using a Muta-ChromoPlate test kit from EBPI (Brampton, Ontario, Canada). […] A solution without a dye (zero dose level) was assayed in the absence and presence of S9 extract, as a control or negative control. S9 extract is a rat liver extract that comprises various metabolic enzymes. The tests associated with the presence of S9 extract were undertaken to provide information on the potential genotoxicity of the metabolized dyes. […] Each single test was carried out using 36 wells and the number of positive wells out of each 36 wells was taken as an indicator of the relative mutagenicity levels of the dye under the test conditions.

[4] = cited from earlier work
[5] = Stability in TBE buffer, optical density at absorption maximum over 24 hours; assay type: physicochemical; conditions: 1.2 μM in 1×TBE buffer, room temperature, monitored at 500 nm
Method: SYBR Gold 10,000× in DMSO from Molecular Probes, Inc. (Eugene, Oreg.) was diluted to 1× working concentration, as recommended by the manufacturer, in 1×TBE buffer. A stock solution of Dye No. 35 of Table 1 in DMSO (12 mM) was diluted to 1.2 μM in 1×TBE buffer. The optical density associated with each of the solutions was monitored at the absorption maximum of the dye (488 nm for SYBR Gold and 500 nm for Dye No. 35) over the course of a 24-hour period at room temperature.

[6] = Hydrolytic, thermal and storage stability in water, electrophoresis buffers and pre-cast gels; assay type: physicochemical
[7] = test system: 1 kb Plus DNA Latter in agarose gel; experiment: Pre-cast DNA gel staining; conditions: 1.2 μM in TBE versus EB 1.3 μM; 300 nm UV
Method: An agarose gel solution (1% agarose) was prepared following a standard protocol (J. Roskams et al., Lab Ref: A Handbook of Recipes, Reagents, and Other Reference Tools for Use at the Bench, Cold Spring Harbor Laboratory Press, Cold Spring Harbor, N.Y., 2002). A stock solution of a Dye No. 35 (ET-27) of Table 1 in DMF at 12 mM concentration was prepared. An aliquot of the stock solution of dye was added to the gel solution, while it was hot, resulting in an effective working concentration of the dye of about 1.2 μM. The resulting solution was thoroughly mixed by swirling. The resulting gel solution was poured onto a gel slab to cast the gel. Serial two-fold dilutions of 1 kb Plus DNA Latter from Invitrogen Co. (Carlsbad, Calif.) were made and the resulting DNA samples were loaded onto the gel in four lanes from left to right with a loading of 200 ng, 100 ng, 50 ng, and 25 ng per lane, respectively. The DNA samples were electrophoretically separated in 1×TBE buffer using a standard protocol. The resulting gel was then viewed using a UV transilluminator with 300 nm excitation. The same procedure was followed using a stock solution of EB at about 0.5 μg/mL (or 1.3 μM) in DMF in place of the stock solution of Dye No. 35 of Table 1.
It should be noted that other dyes described herein may be prepared and employed in the manner described in this Example 49, or a similar manner.

[8] = pre-cast gel prepared with the dye

| Compound | Mutagenicity relative to the negative control [3] | Positive wells ([3]; 0.25 nmole) | Positive wells ([3]; 2.5 nmoles) | Positive wells ([3]; 25 nmoles) | Positive wells, Exp 1 ([3]; 0.25 nmole) | Positive wells, Exp 2 ([3]; 0.25 nmole) | Positive wells, Exp 1 ([3]; 2.5 nmoles) | Positive wells, Exp 2 ([3]; 2.5 nmoles) | Positive wells, Exp 1 ([3]; 25 nmoles) | Positive wells, Exp 2 ([3]; 25 nmoles) | also measured |
| --- | --- | --- | --- | --- | --- | --- | --- | --- | --- | --- | --- |
| C[n+]1c(C=C2C=CN(CCCCCC(=O)NCCCOCCOCCOCCCNC(=O)CCCCCN3C=CC(=Cc4sc5ccccc5[n+]4C)c4ccccc43)c3ccccc32)sc2ccccc21 [Dye No. 29, TOTO-13] | – | – | – | – | – | – | – | – | – | – | Sensitivity in post-DNA gel staining versus SYBR Safe and SYBR Green I ([1]; dye 3.6 μM, SYBR dyes 1× in TBE, 200-25 ng DNA per lane, 254-nm UV transilluminator): substantially more sensitive than SYBR Safe and is as sensitive as SYBR Green I |
| CC[n+]1c(-c2ccccc2)c2cc(N)ccc2c2ccc(N)cc21 [EB, ethidium bromide, reference compound] | very weak mutagenicity | 22 | 17 | 16 | 0 | 0 | 0 | 3 | 0 | 3 | Frame shift mutagenicity in Ames Test (known) [2]: known frame shift mutagen; Mutagenicity ([3]; in the presence of S9 extract): significantly greater mutagenicity than Dye No. 35 |
| CCCN(CCCN(C)C)c1cc(/C=C2/Sc3ccccc3N2C)c2ccccc2[n+]1-c1ccccc1 [SYBR Green I] | – | – | – | – | – | – | – | – | – | – | DNA band brightness in post-DNA gel staining ([1]; staining solution in 1×TBE that lacked NaCl): relatively weaker or less bright DNA bands overall; Hydrolytic stability ([4]; aqueous solution, particularly buffers having a pH of 7 or more): hydrolytically unstable; Time within which pre-cast gel is used before losing utility [4, 8]: 24 h |
| Nc1ccc2c(c1)c(-c1ccccc1)[n+](CCCCCC(=O)NCCCOCCOCCOCCCNC(=O)CCCCC[n+]1c(-c3ccccc3)c3cc(N)ccc3c3ccc(N)cc31)c1cc(N)ccc21 [Dye No. 35, ET-27] | very weak mutagenicity | 0 | 9 | 0 | 2 | 0 | 1 | 3 | 1 | 3 | Absorbance over the 24-hour period [5]: relatively constant; Time heated in a microwave oven without decomposition ([6]; dye in TBE buffer): 10 min; Storage time of pre-cast gel without loss of performance [6, 8]: 3 months; Time stable in an electrophoresis buffer, such as TBE buffer ([6]; room temperature): 6 months; Sensitivity with respect to low level DNA, relative to EB [7]: more sensitive with respect to low level DNA; Sensitivity with respect to shorter DNA fragments, relative to EB [7]: more sensitive with respect to shorter DNA fragments; Toxicity and mutagenicity, overall statement ([3]; comparison of Dye No. 35 with EB): relatively low in toxicity and mutagenicity; also recorded: may be less mutagenic than EB |

From US9102835B2, “Methods of using dyes in association with nucleic acid staining or detection and associated technology” (Biotium, Inc., priority 2005, dated 2015)
